Test results: US20220339141A1, “COMBINATION TREATMENT WITH A P53 REACTIVATOR AND AN INHIBITOR OF AN ANTIAPOPTOTIC BCL-2 FAMILY PROTEIN” (Aprea Therapeutics AB, priority 2019, published 2022)
Like-named read-outs stand apart in the source and are kept apart here.

Key:
MV4-11 = assay: CellTiter-Glo cell viability, 72 h, single agents and combination dose matrix; type: cell-based; conditions: Homo sapiens
Description: For MV4-11: IMEM (Sigma Cat. no. I3390), 10% FBS (Sigma Cat. no. F084) and 1% L-glutamine (Sigma, Cat.no. G7513).
(§1) 75 cm^2 flask (100% confluent) cells was transfer to a 15 ml tube and centrifuged at 1000 RPM for 5 min. Then supernatant was discarded, and cell pellet was resuspended in 6 ml medium. The cells were counted in the TC20 automated cell counter. 10 ml cell culture medium was prepared with 60,000 cells/ml, corresponding to 3,000 cells when 50 μl is seeded out (for MOLM-13, 12,000 cells were used). Cells were seeded in 96-well plates in column 2-12, row B-G, for blank, 100 μL cell culture medium was added. Plates were incubated overnight at 37° C.
(§2) Combenefit 2.021 was used for data analysis.
(§3) The CellTiter-Glo® Luminescent Cell Viability Assay is a homogeneous method of determining the number of viable cells in culture based on quantitation of the ATP present, an indicator of metabolically active cells. The homogeneous assay procedure involves adding the single reagent (CellTiter-Glo® Reagent) directly to cells cultured in serum-supplemented medium. The homogeneous “add-mix-measure” format results in cell lysis and generation of a luminescent signal proportional to the amount of ATP present. The amount of ATP is directly proportional to the number of cells present in culture.
(§4) The experimental dose-response surface that delineates combination effects in concentration space, is first read by the Combenefit software as a matrix of % of the control value across concentrations. […] Based on the two single agent dose response curves, a model-based combination dose-response surface is derived. This surface provides a “reference” dose-response surface for a non-synergistic (additive/independent) combination, whose characteristics are determined by the selected model (i.e., Loewe, Bliss or HSA). The experimental combination dose response surface is then compared to the model-generated one, resulting in a synergy distribution in concentration space.
(§5) This synergy distribution can be further summarized via various metrics (Di Veroli. C, Bioinformatics, 32(18), 2016, 2866-2868) as follows: • SYN_MAX—the maximum level of synergy observed. • SYN_SUM—the sum of synergy observed in concentration logarithmic space. For instance, an integrated synergy of 50 is equivalent to an extra synergistic effect of 50% which is spread over a square of 1 log×1 log in the 2-d log-concentration space.

KG-1 = assay: as above; type: cell-based; conditions: Homo sapiens
Description: (§6) For cell lines KBM3, KG-1 and HL-60: IMEM (Sigma Cat. no. I3390), 20% FBS (Sigma Cat. no. F084) and 1% L-glutamine (Sigma, Cat.no. G7513).
as §1, §2, §3, §4, §5

HL-60 = assay: as above; type: cell-based; conditions: Homo sapiens
Description: as §6, §1, §2, §3, §4, §5

KBM-3 = assay: as above; type: cell-based
Description: as §6, §1, §2, §3, §4, §5

AML cell lines [1] = assay: CellTiter-Glo cell viability, results summarised over the cell line panel; conditions: for IC50: read-out: IC50 values, range over cell lines
Description: (§7) Plates was taken from the incubator to reach room temperature about 30 min. 100 μL CellTiter-Glo was added to all wells (except edge wells). Plates were then shaken on a plate shaker for 3 minutes at room temperature; thereafter the plates were set for 10 min at room temperature to allow cell lysis to appear. The luminescence was measured using the PerkinElmer Victor×4 instrument using the built-in program according to Instruction 11. Combenefit 2.021 was used for data analysis.
(§8) For IC50 determinations, the serial dilution of compounds was performed in cell culture medium based on 1.5- or 2-fold dilution factor. The serially diluted compounds were added to the cells and incubated for 72 h followed by cell viability test using the CTG assay. For each concentration, the current viability values were calculated and IC50 values were determined by XLfit software version 5.5.0.5 (a Microsoft Excel-based plug-in to perform regression, curve fitting and statistical analysis).
(§9) Combenefit performs combination analyses using the standard Loewe, Bliss and HSA methods. In the HSA model, the synergy score quantifies the excess over the highest single drug response. In the Loewe model, the synergy score quantifies the excess over the expected response if the two drugs are the same compound.
(§10) A “combination index” (CI) is then calculated as the measured cell viability of the sample with two co-incubated substances divided by the predicted cell viability.
(§11) If the measured cell viability for a combination of two substances is higher than the cell viability for one or both substances, the effect is considered antagonistic. If the predicted viability is very low, the quote “measured viability/predicted viability” may give false CI values.

MOLM-13 = assay: CellTiter-Glo cell viability, 72 h, single agents and combination dose matrix; type: cell-based; conditions: Homo sapiens, MOLM-13, 72 h, single agent
Description: For MOLM-13, RPMI (R8758, Sigma Aldrich)+10% FBS (F0804, Sigma Aldrich), heat inactivated at 56° C. for 60 min.
as §1, §2, §3, §4, §5

SKM-1 = assay: as above; type: cell-based; conditions: single agent
Description: For SKM-1, RPMI (R8758, Sigma Aldrich)+20% FBS (F0804, Sigma Aldrich), heat inactivated at 56° C. for 60 min.
as §1, §2, §3
The experimental dose-response surface that delineates combination effects in concentration space, is first read by the Combenefit software as a matrix of % of the control value across concentrations. […] Based on the two single agent dose response curves, a model-based combination dose-response surface is derived. This surface provides a “reference” dose-response surface for a non-synergistic (additive/independent) combination, whose characteristics are determined by the selected model (i.e., Loewe, Bliss or HSA). The experimental combination dose response surface is then compared to the model-generated one, resulting in a synergy distribution in concentration space. […]

AML cell lines [2] = system: AML cell lines
Description: as §7, §8, §9, §10, §11

[3] = MV4-11 (AML, p53 R248W), single agent
[4] = KG-1 (AML, p53 Intron6/splice), single agent
[5] = HL-60 (AML, p53 Null (deletion)), single agent
[6] = KBM-3 (AML, p53 WT), single agent
[7] = MOLM-13 (AML, p53 WT), separate study of Example 3
[8] = Homo sapiens, SKM-1 (MDS, p53 R248Q)

Compound	IC50 (MV4-11; MV4-11, single agent, Example 4) [nM]	IC50 (KG-1; KG-1, single agent, Example 4) [nM]	IC50 (HL-60; HL-60, single agent, Example 4) [nM]	IC50 (KBM-3; KBM-3, single agent, Example 4) [nM]	single agent anti-proliferative activity (AML cell lines [1])	IC50 (AML cell lines [1]) [nM]	IC50 (MOLM-13; MOLM-13, Example 4) [nM]	IC50 (MV4-11; [3]) [nM]	IC50 (KG-1; [4]) [nM]	IC50 (HL-60; [5]) [nM]	IC50 (KBM-3; [6]) [nM]	single agent cytotoxic activity (AML cell lines [1]; MOLM-13 and SKM-1)	IC50 (AML cell lines [1]; single agent, cell lines of Table 3) [nM]	IC50 (MOLM-13; MOLM-13 (AML, p53 WT)) [nM]	IC50 (MOLM-13; [7]) [nM]	IC50 (SKM-1; [8]) [nM]	IC50 (MV4-11; MV4-11, single agent, Example 3) [nM]	IC50 (KBM-3; KBM-3, single agent, Example 3) [nM]	single agent cytotoxic activity (AML cell lines [2])	IC50 (SKM-1; SKM-1 (MDS/AML, p53 R248Q homo/hemizygous), separate study of Example 3) [nM]
COc1ccccc1-c1nccc(COc2ccccc2CC(Oc2ncnc3sc(-c4ccc(F)cc4)c(-c4ccc(OCCN5CCN(C)CC5)c(Cl)c4C)c23)C(=O)O)n1 (stereo in doubt) [MIK665, (R)-2-((5-(3-chloro-2-methyl-4-(2-(4-methylpiperazin-1-yl)ethoxy)phenyl)-6-(4-fluorophenyl)thieno[2,3-d]pyrimidin-4-yl)oxy)-3-(2-((2-(2-methoxyphenyl)pyrimidin-4-yl)methoxy)phenyl)propanoic acid]	1.4	600	7	40	dose-dependent anti-proliferative activity	1 to 600	2	–	–	–	–	–	–	–	–	–	–	–	–	–
CC1(C)CCC(CN2CCN(c3ccc(C(=O)NS(=O)(=O)c4ccc(NCC5CCOCC5)c([N+](=O)[O-])c4)c(Oc4cnc5[nH]ccc5c4)c3)CC2)=C(c2ccc(Cl)cc2)C1 [ABT-199, 2-(1H-pyrrolo[2,3-b]pyridin-5-yloxy)-4-(4-((2-(4-chlorophenyl)-4,4-dimethylcyclohex-1-enyl)methyl)piperazin-1-yl)-N-(3-nitro-4-(((tetrahydro-2H-pyran-4-yl)methyl)amino)phenylsulfonyl)benzamide]	–	–	–	–	dose-dependent anti-proliferative activity	–	–	160	1500	60	1360	dose-dependent cytotoxic activity	1 to 1500	1	1.4	70	–	–	–	–
O=C1C2CCN(CC2)C1CNC(=O)C(F)(F)F (stereo not drawn) [Compound A, 2,2,2-trifluoro-N-((3-oxoquinuclidin-2-yl)methyl)acetamide]	–	–	–	–	–	–	–	–	–	–	–	–	–	–	3600	–	1000	1700	dose-dependent cytotoxic activity	660
COCC1(CO)C(=O)C2CCN1CC2 (stereo not drawn) [APR-246, 2-(hydroxymethyl)-2-(methoxymethyl)quinuclidin-3-one]	–	–	–	–	dose-dependent anti-proliferative activity	1000 to 11000	–	2500	11000	8100	3700	–	–	9500	–	1090	–	–	–	–
